Data as given in US20090264421A1 (priority 2007, published 2009).
Like-named read-outs stand apart in the source and are kept apart here.

What was measured:
A549 cells [1] = type: cell-based, human
Method: FIG. 7. […] A549 cells were exposed to the indicated concentration of chaetocin for 24 hours, with addition of glutathione or diluent 30 minutes prior to chaetocin addition. Glutathione levels were assessed by spectrophotometric assay as described below. […] Cells were treated with 10 μM chaetocin for 20 minutes prior to assay, and calculated intracellular chaetocin levels were measured by HPLC with adjusted for differences in average cell volume (calculated from measured cell radii ascertained via light microscopy). Shaded area represents 1 standard deviation confidence interval, with central bar reflecting the mean relative intracellular chaetocin level. […] Cells from 4 myeloma patients were exposed to 200 μM hydrogen peroxide for 24 hours prior to assay, with trypan blue exclusion used to assess surviving cells.
Assessment of cellular oxidative stress: Cellular oxidative stress was assessed utilizing 5,6-chloromethyl-2′,7′-dichlorodihydrofluorescein diacetate or hydroethidium (Molecular Probes/Invitrogen, Carlsbad, Calif.) as cell permeable fluorescent probes and FACS analyses.

[2] = system: freshly collected sorted patient CD138+ myeloma cells; settings: 24 hours
Method: FIG. 3. […] Survival indicated in A-E was assessed using a trypan blue exclusion assay, counting viable cells using a hemocytometer after 24 hour exposure to the indicated drugs and drug concentrations.
Patient bone marrow leukocytes were divided into myeloma (CD138+) and non-myeloma/normal leukocyte (CD138−) fractions employing sorting using magnetic bead technology in kit form (MACS CD138 microbeads, Miltenyi Biotech, Auburn, Calif.). Sorted cells were plated in a 96-well tissue culture plate at a concentration of 5×10^5 cells and dosed with indicated drug concentrations for 24 hours. Survival was assessed using a trypan blue exclusion assay.

A549 cells [3] = settings: for effect of NAC on reductions in colony formation caused by HDAC inhibitors: data not shown
Method: FIG. 5. […] B. Assessment of intracellular (A549 cells) and extracellular (media) chaetocin concentrations as functions of time in response to addition of 10 μM chaetocin to tissue culture media at time 0. C. […] For B and C, chaetocin concentrations were determined as described in the text using HPLC. […] Cells were exposed to all agents for 24 hours, with colonies assessed 6-7 days subsequently as described below.
FIG. 6. […] C. and D. The effects of glutathione pretreatment on intracellular (C) and extracellular (media, D) chaetocin concentration in response to treatment of A549 cells with 10 μM chaetocin for 5 min. Intracellular and extracellular chaetocin concentrations were assessed using HPLC as described in the text, with 100 μM glutathione added 5 minutes before chaetocin addition. E. “Double reciprocal” plot indicating the effects of 5 minute pretreatment with 100 […] glutathione or diluent on intracellular chaetocin concentrations resulting from exposure of A549 cells to varying concentration of chaetocin for 5 minutes. Intracellular chaetocin concentrations were assessed using HPLC as described in the text. Results shown are representative of three independent experiments.
Colony formatting assays: Briefly, 650 suspended A549 cells obtained from trypsinization of stock flasks of subconfluent cell cultures were deposited into each of triplicate sets of 35 mm tissue culture plates and allowed to adhere for 16 hours. Cells were then treated for the indicated durations (24 hours unless otherwise indicated) with diluent and/or drugs as indicated in the text and Figures. After drug removal and washing, cells were allowed to proliferate in drug-free medium for 7 to 10 days, and thereafter washed twice with serum-free phosphate buffered saline (PBS), stained with Coomassie blue, and then manually counted.

thioredoxin reductase = biological target: T1, thioredoxin reductase (Rattus norvegicus, UniProt O89049); experiment: Thioredoxin reductase activity assay (gel-based oxidation state of thioredoxin method); type: biochemical; settings: gel-based, AMS modification
T1 construct: rat liver thioredoxin reductase; purchased Sigma (St. Louis, Mo.); host or cells: rat liver
T1 sequence (O89049 1-499): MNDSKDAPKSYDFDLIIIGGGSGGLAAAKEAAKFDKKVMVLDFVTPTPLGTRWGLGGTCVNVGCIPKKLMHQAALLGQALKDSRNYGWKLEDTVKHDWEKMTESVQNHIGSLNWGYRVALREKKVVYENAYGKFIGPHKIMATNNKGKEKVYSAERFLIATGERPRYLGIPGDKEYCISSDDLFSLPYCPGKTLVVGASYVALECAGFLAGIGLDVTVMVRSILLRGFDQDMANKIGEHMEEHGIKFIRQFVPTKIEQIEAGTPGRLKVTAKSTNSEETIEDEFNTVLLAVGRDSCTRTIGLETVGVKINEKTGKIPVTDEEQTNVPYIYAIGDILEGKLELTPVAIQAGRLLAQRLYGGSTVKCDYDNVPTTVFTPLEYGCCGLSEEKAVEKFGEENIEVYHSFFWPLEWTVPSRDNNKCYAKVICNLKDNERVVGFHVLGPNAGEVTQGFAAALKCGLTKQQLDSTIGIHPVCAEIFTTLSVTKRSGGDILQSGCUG
Method: HeLa cells were obtained from ATCC.
Thioredoxin Reductase Activity Assay (gel-based oxidation state of thioredoxin method): Reduction of thioredoxin by thioredoxin reductase was measured by the decrease in electrophoretic mobility caused by covalent modification of thioredoxin (by AMS) when the disulfide is reduced. […] At the indicated time, a 5 μL sample was removed and immediately added to 5 μL of 30 mM AMS in TE buffer (pH 7.5). The AMS was allowed to react (15 minutes at 22° C.) with reduced thioredoxin sulfhydryl groups, then the samples were mixed with non-reducing sample buffer and were electrophoresed on 18% Tris-HCl SDS-PAGE gels. The gels were stained with Coomassie blue and bands were imaged and quantitated using a Syngene InGenius gel documentation system (Frederick, Md.).

TrxR1 = biological target: T2, TrxR1 (Rattus norvegicus, UniProt O89049)
T2 sequence (O89049 1-499): T1 sequence (O89049 1-499)
Description: Reagents: Chaetocin, β-Nicotinamide adenine dinucleotide 2′-phosphate reduced tetrasodium salt hydrate (NADPH), rat liver thioredoxin reductase, 5,5′-dithiobis(2-nitrobenzoic acid) (DTNB), oxidized glutathione (GSSG), bovine insulin, gliotoxin, thioredoxin reductase assay kit, anti-actin antibody and Celytic lysis reagent were purchased from Sigma (St. Louis, Mo.); yeast glutathione reductase and Complete Protease Inhibitor Tablets from Roche (Indianapolis, Ind.); BCA protein from Pierce (Rockford, Ill.); oxidized E. coli thioredoxin and dithiothreitol (DTT) from Promega (Madison, Wis.); verruculogen from Calbiochem (San Diego, Calif.); 4-acetamido-4′-maleimidylstilbene-2,2′-disulfonic acid (AMS) and Lipofectamine-Plus from Invitrogen (Carlsbad, Calif.); chaetomin from Alexis Biochemicals (San Diego, Calif.); and anti-thioredoxin antibody from Cell Signaling (Beverly, Mass.). HeLa cells were obtained from ATCC.
Steady-state kinetics: The 100 μL reaction consisted of 100 mM potassium phosphate (pH 7.0), 10 mM EDTA, 0.0004 U/μL thioredoxin reductase and chaetocin or other compounds as indicated. The assay was carried out in a 96-well quartz plate and the oxidation of NADPH was measured as a change in absorption at 340 nm. The initial velocities of the reaction were calculated from the decrease in the absorbance between 0 and 5 min (slope), and on a pathlength of 0.3 cm and NADPH ε=6.22 mmol^−1*cm^−1*L. The velocity versus concentration data were then analyzed using SigmaPlot's Enzyme Kinetics 1.3 program (Systat Software, San Jose, Calif.).

HeLa cells = experiment: Transient thioredoxin overexpression in HeLa cells, trypan blue viability; type: cell-based, human; settings: 100 nM, 24 hours
Method: A. Transient overexpression of thioredoxin attenuates chaetocin—but not doxorubicin-induced cytotoxicity in HeLa cells. Transfected cells were treated for 24 hours, cell viability assessed using a trypan blue […] assay. Inset: immunoblotting showing increased level of thioredoxin in transiently transfected HeLa cells compared to empty-vector transfected cells. B. Model indicating how chaetocin competes with thioredoxin as a substrate for thioredoxin reductase, thereby serving to attenuate reduction of the thioredoxin reductase downstream substrate and effector thioredoxin. Figure numbers corresponding to experimental data supporting indicated effects are shown.
Cell culture, transient transfections, and immunoblotting: HeLa cells were cultured in RPMI 1640 containing 5% FBS and 2 mM L-glutamine. Cells were passaged twice weekly and maintained in 37° C. in an atmosphere containing 95% air-5% CO2 (vol/vol). For transfections, 10^5 cells per well were plated in 12-well plates and were transfected with 1 μg pcDNA or pcDNA-Trx using standard Lipofectamine-Plus procedures. Transfection efficiency based on cells transfected with GFP was 80%. […] The cells were then trypsinized and manually counted in trypan blue to exclude dead cells. […] Protein was analyzed by BCA assay and lysates were electrophoresed on 15% SDS-PAGE gels and transferred to nitrocellulose. […]

A549 cells [4] = type: cell-based, human; settings: glutathione added 5 minutes before 10 μM chaetocin
Description: Measurement of intra- and extracellular chaetocin levels: Tumor cells treated with indicated chaetocin concentrations were washed twice with ice cold PBS, immediately solubilized in 0.5 M perchloric acid, and evaluated “real time” via HPLC using Beckman System Gold Nouveau Software with a dual pump 125 gradient pump system, 507e autosampler, 168 diode array detector, and Beckman Ultrasphere ODS column (4.6 mm×[…]×7 μm) using the following elution profile: 100% water to 100% methanol linear gradient over 40 minutes, followed by a 10 minute period of elution with 100% methanol. Quantitation was accomplished using a standard curve of peak areas derived from analogous HPLC data using varying concentrations of chaetocin.

[5] = substrate of TrxR1, NADPH oxidation

## OO [H2O2, hydrogen peroxide]
A549 cells [1]; 24 hours, FACS probe
  cellular oxidative stress: increased intracellular oxidative species
[2]; 200 μM hydrogen peroxide, 4 patients
  sensitivity of patient myeloma cells versus matched normal leukocytes: more sensitive to peroxide-induced cytotoxicity

## O=C(/C=C/c1ccc(CN(CCO)CCc2c[nH]c3ccccc23)cc1)NO [LAQ-824]
A549 cells [3]; A549 cells
  effect of NAC on reductions in colony formation caused by HDAC inhibitors: unaffected by NAC

## CC(=O)N[C@@H](CS)C(=O)O [NAC, N-acetyl cysteine]
A549 cells [3]; A549 cells, co-treatment with chaetocin
  effect of co-treatment on chaetocin-induced reductions in colony formation: attenuated chaetocin-induced cytotoxicity
A549 cells [1]; 10 mM NAC
  effect of pretreatment on chaetocin-induced oxidative stress: attenuated chaetocin-induced oxidative stress

## CS[C@@]1(CO)C(=O)N2[C@H]3Nc4ccccc4[C@@]3([C@]34C[C@]5(SC)C(=O)N(C)[C@@](CO)(SC)C(=O)N5[C@H]3Nc3ccccc34)C[C@]2(SC)C(=O)N1C [S-methyl chaetocin]
A549 cells [3]; 24 hour exposure, modified chaetocin disulfide bond
  cytotoxicity (colony formation): complete abrogation of its cytotoxicity
Thioredoxin reductase
  inhibition of reduction of thioredoxin by thioredoxin reductase: inability

## CN1C(=O)[C@]2(Cc3cn([C@]45C[C@@]67SS[C@@](CO)(C(=O)N6[C@H]4Nc4ccccc45)N(C)C7=O)c4ccccc34)SS[C@@]1(CO)C(=O)N2C [chetomin, chaetomin]
TrxR1; [5]
  Km: 16.1 ± 5.4 µM
Thioredoxin reductase
  inhibition of reduction of thioredoxin by thioredoxin reductase: also inhibited the activity of thioredoxin reductase, albeit somewhat less effectively than chaetocin

## COc1cccc2c1C(=O)c1c(O)c3c(c(O)c1C2=O)C[C@@](O)(C(=O)CO)C[C@@H]3O[C@H]1C[C@H](N)[C@H](O)[C@H](C)O1 [doxorubicin]
HeLa cells
  effect of transient Trx overexpression on drug-induced cell death: did not appreciably rescue cells from doxorubicin-induced cell death
[2]; ex vivo, trypan blue exclusion
  activity against sorted patient CD138+ myeloma cells: largely resistant

## CN1C(=O)[C@]23CC4=CC=C[C@H](O)[C@H]4N2C(=O)[C@@]1(CO)SS3 [gliotoxin]
TrxR1
  Km: 16 ± 5 µM
Thioredoxin reductase
  inhibition of reduction of thioredoxin by thioredoxin reductase: also inhibited the activity of thioredoxin reductase, albeit somewhat less effectively than chaetocin

## N[C@@H](CCC(=O)N[C@@H](CS)C(=O)NCC(=O)O)C(=O)O [glutathione, reference compound]
A549 cells [3]
  effect of co-treatment on chaetocin-induced reductions in colony formation: attenuated chaetocin-induced cytotoxicity
A549 cells [4]
  effect of pretreatment on cellular accumulation of chaetocin: attenuated the cellular accumulation of chaetocin

## CC(/C=C/C(=O)NO)=C\[C@@H](C)C(=O)c1ccc(N(C)C)cc1 [tricostatin A, trichostatin A]
A549 cells [3]; A549 cells
  effect of NAC on reductions in colony formation caused by HDAC inhibitors: unaffected by NAC

## CCCC(CCC)C(=O)O [valproic acid]
A549 cells [3]; A549 cells
  effect of NAC on reductions in colony formation caused by HDAC inhibitors: unaffected by NAC

## COc1ccc2c3c4n(c2c1)[C@H](C=C(C)C)OOC(C)(C)C[C@@H]4N1C(=O)[C@@H]2CCCN2C(=O)[C@]1(O)[C@H]3O [verruculogen, reference compound]
Thioredoxin reductase
  inhibition of reduction of thioredoxin by thioredoxin reductase: inability

## Trx: TrxR1 native substrate thioredoxin (oxidized E. coli thioredoxin from Promega)
TrxR1; [5]
  Km: 105 ± 26 µM
